Measured values published in patent publication US20240352145A1, “EFFICACY OF ANTI-TROP-2-SN-38 ANTIBODY DRUG CONJUGATES FOR THERAPY OF TUMORS RELAPSED/REFRACTORY TO CHECKPOINT INHIBITORS” (Immunomedics, Inc., priority 2016, published 2024).

Tests used:
[1] = test system: Capan-1; assay: Cytotoxicity (MTS), Example 6, Capan-1; assay type: cell-based, human; conditions: Capan-1, 96 h
Protocol: (§1) One day prior to adding the ADCs, cells were harvested from tissue culture and plated into 96-well plates. […] Plates were incubated at 37° C. for 96 h. […] Growth inhibition was measured as a percent of growth relative to untreated cells using Microsoft Excel and Prism software (non-linear regression to generate sigmoidal dose response curves which yield IC50-values.

[2] = test system: Capan-1 tumors; assay: Capan-1 xenograft therapy; assay type: in vivo, mouse; conditions: 0.2 mg/kg SN-38 twice weekly x 4 weeks
Protocol: (§2) NCr female athymic nude (nu/nu) mice, 4 to 8 weeks old, and male Swiss-Webster mice, 10 weeks old, were purchased from Taconic Farms. Tolerability studies were performed in Cynomolgus monkeys (Macaca fascicularis; 2.5-4 kg male and female) by SNBL USA, Ltd. Animals were implanted subcutaneously with different human cancer cell lines. Tumor volume (TV) was determined by measurements in 2 dimensions using calipers, with volumes defined as: L×w^2/2, where L is the longest dimension of the tumor and w is the shortest. […] This dosing frequency reflected a consideration of the conjugate's serum half-life […], to allow a more continuous exposure to the ADC.
(§3) Statistics—Growth curves are shown as percent change in initial TV over time. Statistical analysis of tumor growth was based on area under the curve (AUC). Profiles of individual tumor growth were obtained through linear-curve modeling. An f-test was employed to determine equality of variance between groups before statistical analysis of growth curves. A 2-tailed t-test was used to assess statistical significance between the various treatment groups and controls, except for the saline control, where a 1-tailed t-test was used (significance at P≤0.05). Statistical comparisons of AUC were performed only up to the time that the first animal within a group was euthanized due to progression.

[3] = Tolerability in Cynomolgus monkeys; assay type: in vivo, Macaca fascicularis
Text: Dosages, times, and number of monkeys bled for evaluation of possible hematologic toxicities and serum chemistries are described in the Results.

[4] = test system: Capan-1; assay: Combination 90Y-hPAM4 RAIT + ADC, Capan-1 xenograft; assay type: in vivo, mouse
Text: Objective responses occurred in most animals, but they were more robust in both of the combination groups as compared to each agent given alone. […] These studies provide the first evidence that combined radioimmunotherapy and ADC enhances efficacy at safe doses.

[5] = test system: Capan-1; assay: In vitro cytotoxicity, Capan-1
Text: Cell lines, antibodies, and chemotherapeutics—All human cancer cell lines used in this study were purchased from the American Type Culture Collection.

[6] = test system: NCI-N87; assay: Cytotoxicity (MTS), Example 6, NCI-N87; assay type: cell-based, human; conditions: NCI-N87, 96 h
Protocol: as §1

[7] = test system: HCC1806 (Trop-2+); assay: dsDNA breaks, phospho-H2AX flow cytometry, HCC1806; assay type: cell-based, human; conditions: untreated baseline 168
Protocol: In vitro specificity testing by flow cytometry with rH2AX-stained cells—For drug activity testing, HCC1806 and HCC1395 TNBC cell lines cells were seeded in 6-well plates at 5×10^5 cells/well and held at 37° C. overnight. […] The signal intensity of rH2AX was measured by flow cytometry using a BD FACSCalibur (BD Biosciences, San Jose, CA).
The cells were then washed to remove unbound conjugate, and then incubated overnight at 37° C.

[8] = test system: MDA-MB-468 TNBC tumors; assay: MDA-MB-468 TNBC xenograft; assay type: in vivo, mouse
[9] = test system: urothelial cancer; assay: Phase I/II, urothelial cancer cohort; assay type: in vivo, human
[10] = test system: metastatic non-small cell lung cancer (NSCLC); assay: Phase I/II, metastatic NSCLC cohort; assay type: in vivo, human
Protocol: The best responses by RESIST 1.1 criteria were determined (not shown).

[11] = mouse, in vivo
[12] = target: T1, recombinant human neonatal receptor (FcRn) (Homo sapiens, UniProt P55899); assay: Surface plasmon resonance (BIACORE), FcRn; assay type: binding; conditions: low-density FcRn chip, three independent runs
T1 construct: made in house
Text: Surface Plasmon Resonance Binding (BIACORE)—Briefly, rhTrop-2/TACSTD2 (Sino Biological, Inc.) or recombinant human neonatal receptor (FcRn), produced as described (Wang et al., 2011, Drug Metab Dispos 39:1469-77), was immobilized with an amine coupling kit (GE Healthcare; Cat. No. BR-1000-50) on a CM5 sensor chip (GE Healthcare; Cat. #BR-1000-12) following manufacturer's instructions for a low-density chip. […] Each set would make up a separate run on the BIACORE (BIACORE-X; Biacore Inc., Piscataway, NJ) and data were analyzed using BIAevaluation Software (Biacore Inc., v4.1). Analysis was performed with a 1:1 (Langmuir) Binding Model and Fit, using all five concentration points for each sample run to determine the best fit (lowest χ^2 value). The KDvalue was calculated using the formula KD=kd1/ka1, where kd1 is the dissociation rate-constant and ka1 is the association-rate constant.

[13] = test system: MDA-MB-231; conditions: mouse, in vivo
[14] = mouse, in vivo; remark: listed apart in the source
Protocol: One group was injected intravenously with 20 μCi (250-μg protein) of ^111In-sacituzumab govitecan, whereas another group received 20 μCi (250-μg protein) of ^111In-hRS7 IgG. At various timepoints mice (5 per timepoint) were anesthetized, bled via intracardiac puncture, and then euthanized. Tumors and various tissues were removed, weighed, and counted by γ scintillation to determine the percentage injected dose per gram tissue (% ID/g). […] Pharmacokinetic analysis on blood clearance was performed using WinNonLin software (Parsight Corp.).

[15] = test system: triple-negative breast cancer
[16] = Cardillo et al., 2011; cited from earlier work
[17] = test system: BxPC-3 human pancreatic tumors; assay: BxPC-3 xenograft therapy; assay type: in vivo, mouse
Protocol: as §2, §3

T1 sequence (P55899 24-297 limits assumed): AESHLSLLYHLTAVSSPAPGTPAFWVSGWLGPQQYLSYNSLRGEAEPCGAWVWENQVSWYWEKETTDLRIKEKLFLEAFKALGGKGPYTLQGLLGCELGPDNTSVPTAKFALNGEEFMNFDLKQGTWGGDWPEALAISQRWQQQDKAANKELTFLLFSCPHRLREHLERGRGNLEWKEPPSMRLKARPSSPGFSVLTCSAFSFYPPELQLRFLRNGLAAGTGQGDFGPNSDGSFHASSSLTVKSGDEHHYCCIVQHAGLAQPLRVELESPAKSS
T1 sequence (P61769 21-119 partner): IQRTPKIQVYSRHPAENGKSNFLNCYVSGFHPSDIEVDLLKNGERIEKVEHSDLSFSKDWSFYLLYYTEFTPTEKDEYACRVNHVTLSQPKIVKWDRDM

IMMU-132
IC50 [1]: 3.5 nM
tumor growth vs untreated and hA20-CL2A-SN-38 [2]: significantly inhibited tumor growth
tumor-free mice at end of study ([2]; day 140): 50%
serum chemistries ([3]; 2x0.96 mg SN-38/kg): No abnormal values
weight loss ([3]; 2x0.96 mg SN-38/kg): ≤ 7.3%
histopathology, microscopic changes ([3]; 2x0.96 mg SN-38/kg, day 11): minimal to moderate
blood counts ([3]; 2x0.96 mg/kg, transient decreases, listed as sacituzumab govitecan): the values did not fall below normal ranges
deaths ([3]; 2x1.92 mg SN-38/kg, gastrointestinal complications and bone marrow suppression): 1
extrapolated human dose ([3]; cynomolgus monkey, in vivo): ~0.3 mg/kg/dose
tumor-free mice after 20 weeks ([4]; 75 μCi 90Y-hPAM4 level, ADC alone, or their combination, n=10): 1 of 10
IC50 [5]: 6.99 nM
IC50 [6]: 3.6 nM
Median fluorescence intensity, anti-rH2AX-AF488 [7]: 546
tumor response ([8]; 0.12 or 0.20 mg/kg SN-38-equivalents, vs saline, irinotecan, hA20-CL2A-SN-38): induced significant tumor regression
total volume [TV] five weeks after re-treatment ([8]; mice progressed on hA20-CL2A-SN-38 (0.74±0.41 cm^3), then 0.2 mg/kg): 0.14±0.14 cm^3
decrease in tumor size after re-treatment ([8]; one animal each, tumors progressed to ~0.7 cm^3 on irinotecan): 60%
PR, patients ([9]; 11 assessable patients, 8 or 10 mg/kg): 6
median time to progression ([9]; in vivo): 8.1 months
median PFS ([10]; 8 mg/kg): 3.4 months
median PFS ([10]; 10 mg/kg): 3.8 months
patients with PR or SD ([10]; 21/33): 64%
PR, patients ([10]; 29 assessable patients, 8 or 10 mg/kg): 8
median time to progression ([10]; in vivo): 9/4
clearance vs unconjugated IgG [11]: no significant difference in the clearance
Kd [12]: 192 ± 47.6 nM
specific therapeutic effects [13]: specific therapeutic effects with IMMU-132 were not achieved
amount in tumor vs hRS7 IgG [14]: similar
decrease in sum of long diameter of target lesions ([15]; after 3 therapy cycles, 12 mg/kg then 9 mg/kg): 43%
response ([15]; first response assessment): partial response by RECIST criteria
very well tolerated human equivalent dose [16]: ~40 mg/kg
tumor volume (TV) ([17]; day 21, equivalent amounts of ADC): 0.24±0.11 cm^3
tumor volume (TV) ([17]; day 25): 0.27±0.18 cm^3

hRS7 IgG
anti-tumor activity of unconjugated antibodies ([4]; given alone): Neither unconjugated hPAM4 nor hRS7 antibodies had anti-tumor activity
Kd [12]: 92.4 ± 5.7 nM
